Structures can show the parent of a compound that is named as a salt.
What was measured:
Type in all cases: cell-based
Conditions in all cases: ratio to NECA
[1] = target: T1, adenosine 2a receptor (Homo sapiens, UniProt P29274); assay: Agonist activity, CHO cells transfected with human adenosine receptor and CRE-SPAP reporter; basal cAMP (A2a)
T1 construct: expressed in transfected cells; host or cells: CHO cells
Procedure: (§1) (1) Agonist activity against adenosine 2a, adenosine 1 and adenosine 3 receptor subtypes.
(§2) Agonist selectivity of compounds against other human adenosine receptors is determined using Chinese hamster ovary (CHO) cells transfected with the gene for the relevant human adenosine receptor following a method based on that of Castanon and Spevak, 1994. The CHO cells are also transfected with cyclic AMP response elements promoting the gene for secreted placental alkaline phosphatase (SPAP) (Wood, 1995). The effect of test compounds may be determined by their effects on basal levels of CAMP (A2a) or on forskolin-enhanced cAMP (A1 and A3) as reflected by changes in levels of SPAP. EC50 values for compounds may then be determined as a ratio to that of the non-selective agonist N-ethyl carboxamide adenosine (NECA).

[2] = target: T2, adenosine 3 receptor (Homo sapiens, UniProt P0DMS8); assay: Agonist activity, CHO cells transfected with human adenosine receptor and CRE-SPAP reporter; forskolin-enhanced cAMP (A3)
T2 construct: expressed in transfected cells; host or cells: CHO cells
T2 sequence (P0DMS8 1-318): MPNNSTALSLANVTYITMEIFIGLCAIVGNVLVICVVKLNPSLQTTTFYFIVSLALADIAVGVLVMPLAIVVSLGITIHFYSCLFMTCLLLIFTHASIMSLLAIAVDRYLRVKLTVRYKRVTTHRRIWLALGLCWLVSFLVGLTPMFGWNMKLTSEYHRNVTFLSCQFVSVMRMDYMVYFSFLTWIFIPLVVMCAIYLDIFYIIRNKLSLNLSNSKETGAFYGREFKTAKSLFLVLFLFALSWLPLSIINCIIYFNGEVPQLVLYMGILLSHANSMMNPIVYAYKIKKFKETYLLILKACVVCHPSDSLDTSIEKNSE
Procedure: as §1, §2

[3] = target: T3, adenosine 1 receptor (Homo sapiens, UniProt P30542); assay: Agonist activity, CHO cells transfected with human adenosine receptor and CRE-SPAP reporter; forskolin-enhanced cAMP (A1)
T3 construct: expressed in transfected cells; host or cells: CHO cells
T3 sequence (P30542 1-326): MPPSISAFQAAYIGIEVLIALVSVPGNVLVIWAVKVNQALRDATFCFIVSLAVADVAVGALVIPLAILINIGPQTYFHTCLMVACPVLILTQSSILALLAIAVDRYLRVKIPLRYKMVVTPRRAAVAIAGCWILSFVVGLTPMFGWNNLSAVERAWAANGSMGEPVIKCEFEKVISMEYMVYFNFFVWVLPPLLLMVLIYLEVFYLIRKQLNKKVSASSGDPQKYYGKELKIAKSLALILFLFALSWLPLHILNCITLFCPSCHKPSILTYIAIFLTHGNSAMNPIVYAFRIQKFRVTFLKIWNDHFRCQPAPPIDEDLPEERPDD
Procedure: as §1, §2

[4] = * data are minimum values since preparation was found, after testing, to contain an inactive impurity
[5] = ** data on retested purified compound

T1 sequence (P29274 whole entry): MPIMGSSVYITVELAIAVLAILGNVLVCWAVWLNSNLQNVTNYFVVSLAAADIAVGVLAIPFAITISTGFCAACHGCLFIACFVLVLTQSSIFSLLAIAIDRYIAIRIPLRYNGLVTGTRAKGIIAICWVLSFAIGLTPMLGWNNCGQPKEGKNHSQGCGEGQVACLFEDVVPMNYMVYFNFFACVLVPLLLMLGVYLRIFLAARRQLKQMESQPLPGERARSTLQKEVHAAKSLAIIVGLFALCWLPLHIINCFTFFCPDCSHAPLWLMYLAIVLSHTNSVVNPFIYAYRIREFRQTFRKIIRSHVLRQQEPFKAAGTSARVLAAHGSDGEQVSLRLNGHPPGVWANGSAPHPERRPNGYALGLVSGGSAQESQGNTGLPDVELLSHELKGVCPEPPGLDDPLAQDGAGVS

Structure (SMILES) | A2a, EC50 as a ratio of that of NECA [1, 4] | A3, EC50 as a ratio of that of NECA [2, 4] | A1, EC50 as a ratio of that of NECA [3, 4] | A2a, EC50 as a ratio of that of NECA ([1]; CHO cells, SPAP readout) | A3, EC50 as a ratio of that of NECA ([2]; CHO cells, SPAP readout) | A1, EC50 as a ratio of that of NECA ([3]; CHO cells, SPAP readout) | A2a, EC50 as a ratio of that of NECA [1, 5] | A3, EC50 as a ratio of that of NECA [2, 5] | A1, EC50 as a ratio of that of NECA [3, 5]
Cc1noc(C2OC(n3cnc4c(N)nc(NC(CO)Cc5ccccc5)nc43)C(O)C2O)n1 [Example 12, (2R,3R,4S,5S)-2-[6-Amino-2-(1S-hydroxymethyl-2-phenyl-ethylamino)-purin-9-yl]-5-(3-methyl-[1,2,4]oxadiazol-5-yl)-tetrahydro-furan-3,4-diol formate] | 4.54 | >302 | 1863.5 |  |  |  |  |  | 
CCc1noc([C@H]2O[C@@H](n3cnc4c(NC(CC)CC)nc(NCCc5cn(C)cn5)nc43)[C@H](O)[C@@H]2O)n1.O=CO [Example 13, (2S,3S,4R,5R)-2-(3-Ethyl-[1,2,4]oxadiazol-5-yl)-5-(6-(1-ethyl-propylamino)-2-[2-(1-methyl-1H-imidazol-4-yl)-ethylamino]-purin-9-yl}tetrahydro-furan-3,4-diol formate] |  |  |  | 0.61 | >289 | >=4370 |  |  | 
CCc1noc([C@H]2O[C@@H](n3cnc4c(NCC(c5ccccc5)c5ccccc5)nc(Nc5ccc(F)cc5)nc43)[C@H](O)[C@@H]2O)n1.O=CO [Example 44, (2R,3R,4S,5S)-2-[6-(2,2-Diphenyl-ethylamino)-2-(4-fluoro-phenylamino)-purin-9-yl]-5-(3-ethyl-[1,2,4]oxadiazol-5-yl)-tetrahydro-furan-3,4-diol formate] |  |  |  | 94.39 | >165 | >6131 |  |  | 
CCc1noc(C2OC(n3cnc4c(N)nc(NCCc5ccccn5)nc43)C(O)C2O)n1.O=CO.O=CO (stereo not drawn) [Example 8] | 14.05 | >215 | >=3865 |  |  |  |  |  | 
CCC(CC)Nc1nc(NCCN2CCOCC2)nc2c1ncn2[C@@H]1O[C@H](c2nc(C)no2)[C@@H](O)[C@H]1O.O=CO [Example 6, (2R,3R,4S,5S)-2-[6-(1-Ethyl-propylamino)-2-(2-morpholin-4-yl-ethylamino)-purin-9-yl]-5-(3-methyl-[1,2,4]oxadiazol-5-yl)-tetrahydro-furan-3,4-diol formate] | 41.35 | >642 | >4833 |  |  |  |  |  | 
CCc1noc(C2OC(n3cnc4c(NCC(c5ccccc5)c5ccccc5)nc(NCCN5CCCC5)nc43)C(O)C2O)n1.O=CO.O=CO (stereo not drawn) [Example 39] |  |  |  | 30.21 | >130 | 4505.4 |  |  | 
CCc1noc(C2OC(n3cnc4c(NCC(c5ccccc5)c5ccccc5)nc(NC5CCC(N)CC5)nc43)C(O)C2O)n1.O=CO.O=CO [Example 4, (2R,3R,4S,5S)-2-[2-(trans-4-Amino-cyclohexylamino)-6-(2,2-diphenyl-ethylamino)-purin-9-yl]-5-(3-ethyl-[1,2,4]oxadiazol-5-yl)-tetrahydro-furan-3,4-diol diformate] |  |  |  | 5.37 | >383 | >=3996 |  |  | 
Cc1noc([C@H]2O[C@@H](n3cnc4c(N)nc(NCCc5cn(C)cn5)nc43)[C@H](O)[C@@H]2O)n1.O=C(O)C(F)(F)F.O=C(O)C(F)(F)F [Example 7] | 11.02 | >117 | 1013.4 |  |  |  |  |  | 
CCC(CC)Nc1nc(N[C@H]2CCC[C@@H]2O)nc2c1ncn2[C@@H]1O[C@H](c2nc(C)no2)[C@@H](O)[C@H]1O.O=CO [Example 24, (2R,3R,4S,5S)-2-[6-(1-Ethyl-propylamino)-2-(2S-hydroxy-cyclopent-(S)-ylamino)-purin-9-yl]-5-(3-methyl-[1,2,4]oxadiazol-5-yl)-tetrahydro-furan-3,4-diol formate] |  |  |  | 18.13 | >284 | >5264 |  |  | 
Cc1noc([C@H]2O[C@@H](n3cnc4c(N)nc(NCCc5ccccc5)nc43)[C@H](O)[C@@H]2O)n1.O=C(O)C(F)(F)F [Example 15, (2R,3R,4S,5S)-2-(6-Amino-2-phenethylamino-purin-9-yl)-5-(3-methyl-[1,2,4]oxadiazol-5-yl)-tetrahydro-furan-3,4-diol trifluoroacetate] |  |  |  | 2.29 | >130 | >5511 |  |  | 
Cc1noc([C@H]2O[C@@H](n3cnc4c(N)nc(NC5CCCC5)nc43)[C@H](O)[C@@H]2O)n1.O=CO [Example 11, (2R,3R,4S,5S)-2-(6-Amino-2-cyclopentylamino-purin-9-yl)-5-(3-methyl-[1,2,4]oxadiazol-5-yl)-tetrahydro-furan-3,4-diol formate] | 6.66 | >266 | 145.5 |  |  |  |  |  | 
CCc1noc([C@H]2O[C@@H](n3cnc4c(NC(CC)CC)nc(NC5CCCC5)nc43)[C@H](O)[C@@H]2O)n1.O=CO [Example 23, (2R,3R,4S,5S)-2-[2-Cyclopentylamino-6-(1-ethyl-propylamino)-purin-9-yl]-5-(3-ethyl-[1,2,4]oxadiazol-5-yl)-tetrahydro-furan-3,4-diol formate] |  |  |  | 12.72 | >163 | 17.02 |  |  | 
CCc1noc(C2OC(n3cnc4c(N)nc(NCCc5cn(C)cn5)nc43)C(O)C2O)n1 [Example 10, (2R,3R,4S,5S)-2-{6-Amino-2-[2-(1-methyl-1H-imidazol-4-yl)-ethylamino]-purin-9-yl}-5-(3-ethyl-1,2,4]oxadiazol-5-yl)-tetrahydro-furan-3,4-diol diformate] | 7.66 | >269 | 3449.6 |  |  |  |  |  | 
CCc1noc([C@H]2O[C@@H](n3cnc4c(NC(CC)CC)nc(N[C@H]5CC[C@H](N)CC5)nc43)[C@H](O)[C@@H]2O)n1.O=CO [Example 29, (2R,3R,4S,5S)-2-[2-(trans-4-Amino-cyclohexylamino)-6-(1-ethyl-propylamino)-purin-9-yl]-5-(3-ethyl-[1,2,4]oxadiazol-5-yl)-tetrahydro-furan-3,4-diol formate] | 8.92 | >117 | 989.5 |  |  |  |  |  | 
CCc1noc(C2OC(n3cnc4c(NCC(c5ccccc5)c5ccccc5)nc(NC(CO)C(C)C)nc43)C(O)C2O)n1 [Example 5, (2R,3R,4S,5S)-2-[6-(2,2-Diphenyl-ethylamino)-2-(1S-hydroxymethyl-2-methyl-propylamino)-purin-9-yl]-5-(3-ethyl-[1,2,4]oxadiazol-5-yl)-tetrahydro-furan-3,4-diol formate] |  |  |  | 6.12 | >309 | 1391.2 |  |  | 
CCc1noc(C2OC(n3cnc4c(NC(CC)CC)nc(NC5CCNC5)nc43)C(O)C2O)n1 [Example 27, (2S,3S,4R,5R)-2-(3-Ethyl-[1,2,4]oxadiazol-5-yl)-5-[6-(1-ethyl-propylamino)-2-(pyrrolidin-3R-ylamino)-purin-9-yl]-tetrahydro-furan-3,4-diol formate] | 10.5 | >284 | 263.14 |  |  |  |  |  | 
CCc1noc([C@H]2O[C@@H](n3cnc4c(NCC(c5ccccc5)c5ccccc5)nc(NCCN5CCOCC5)nc43)[C@H](O)[C@@H]2O)n1.O=CO [Example 31, (2R,3R,4S,5S)-2-[6-(2,2-Diphenyl-ethylamino)-2-(2-morpholin-4-yl-ethylamino)-purin-9-yl]-5-(3-ethyl-[1,2,4]oxadiazol-5-yl)-tetrahydro-furan-3,4-diol formate] |  |  |  | 30.6 | >262 | 6452 |  |  | 
CCc1noc(C2OC(n3cnc4c(N)nc(NC(CO)Cc5ccccc5)nc43)C(O)C2O)n1 [Example 9, (2R,3R,4S,5S)-2-[6-Amino-2-(1S-hydroxymethyl-2-phenyl-ethylamino)-purin-9-yl]-5-(3-ethyl-[1,2,4oxadiazol-5-yl)-tetrahydro-furan-3,4-diol formate] | 0.81 | >231 | 1692.4 |  |  |  | 0.086 | >287 | 3006

From patent US6610665B1 (Smithkline Beecham Corporation, priority 1998, dated 2003)
